According to patent US20230265116A1, “DEGRADATION OF (EGFR) BY CONJUGATION OF EGFR INHIBITORS WITH E3 LIGASE LIGAND AND METHODS OF USE” (BEIGENE, LTD., priority 2020, published 2023):
Where two headings read alike, the source gives them in different places.

Key:
[1] = target: T1, EGFR L858R/T790M/C797S (BaF3-LTC cells) (Homo sapiens, UniProt P00533, C797S/L858R/T790M); assay: EGFR degradation HTRF assay, BaF3-LTC cells; assay type: cell-based
T1 construct: expressed in transfected cells; host or cells: BaF3
How it was run: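 Cells treated 16 h at 37 °C, 5% CO2 in medium with 0.2% DMSO; top final concentration 10 uM, 5-fold dilution, 8 doses. Lysates read by HTRF (665/620 nm); degradation % versus DMSO high control, DC50 from four-parameter fit, Dmax as maximal degradation.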

[2] = tested on: EGFR Del19/T790M/C797S (H1975-clone #28); assay: EGFR degradation HTRF assay, H1975-clone #28 DTC cells; assay type: cell-based
How it was run: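 Read-out is an HTRF EGFR signal (337 nm excitation, 665/620 nm) from lysates of mutant-EGFR H1975 clones in which only the exogenous EGFR survives knockout. Treatment ran 16h at 37° C. from 10 uM final downward in 5-fold steps. DC50 comes from a logistic fit and Dmax is the maximal degradation.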

[3] = read-out: DC50(nM) BaF3-LTC; BaF3-LTC cells; EGFR degradation, IC50 (DC50) from curve fit
[4] = read-out: Dmax (%) BaF3-LTC, BaF3-LTC cells; maximum percentage of inhibition (degradation)
[5] = H1975 # 28 DTC cells; maximum percentage of inhibition (degradation)
[6] = read-out: DC50(nM) H1975 # 28 DTC; H1975 # 28 DTC cells; EGFR degradation, IC50 (DC50) from curve fit
[7] = BaF3-LTC cells; EGFR degradation, IC50 (DC50) from curve fit; read-out: DC50(nM) BaF3-LTC
[8] = BaF3-LTC cells; maximum percentage of inhibition (degradation); read-out: Dmax (%) BaF3-LTC
[9] = H1975 # 28 DTC cells; EGFR degradation, IC50 (DC50) from curve fit; read-out: DC50(nM) H1975 # 28 DTC

T1 sequence (P00533 25-1210 T790M/C797S/L858R): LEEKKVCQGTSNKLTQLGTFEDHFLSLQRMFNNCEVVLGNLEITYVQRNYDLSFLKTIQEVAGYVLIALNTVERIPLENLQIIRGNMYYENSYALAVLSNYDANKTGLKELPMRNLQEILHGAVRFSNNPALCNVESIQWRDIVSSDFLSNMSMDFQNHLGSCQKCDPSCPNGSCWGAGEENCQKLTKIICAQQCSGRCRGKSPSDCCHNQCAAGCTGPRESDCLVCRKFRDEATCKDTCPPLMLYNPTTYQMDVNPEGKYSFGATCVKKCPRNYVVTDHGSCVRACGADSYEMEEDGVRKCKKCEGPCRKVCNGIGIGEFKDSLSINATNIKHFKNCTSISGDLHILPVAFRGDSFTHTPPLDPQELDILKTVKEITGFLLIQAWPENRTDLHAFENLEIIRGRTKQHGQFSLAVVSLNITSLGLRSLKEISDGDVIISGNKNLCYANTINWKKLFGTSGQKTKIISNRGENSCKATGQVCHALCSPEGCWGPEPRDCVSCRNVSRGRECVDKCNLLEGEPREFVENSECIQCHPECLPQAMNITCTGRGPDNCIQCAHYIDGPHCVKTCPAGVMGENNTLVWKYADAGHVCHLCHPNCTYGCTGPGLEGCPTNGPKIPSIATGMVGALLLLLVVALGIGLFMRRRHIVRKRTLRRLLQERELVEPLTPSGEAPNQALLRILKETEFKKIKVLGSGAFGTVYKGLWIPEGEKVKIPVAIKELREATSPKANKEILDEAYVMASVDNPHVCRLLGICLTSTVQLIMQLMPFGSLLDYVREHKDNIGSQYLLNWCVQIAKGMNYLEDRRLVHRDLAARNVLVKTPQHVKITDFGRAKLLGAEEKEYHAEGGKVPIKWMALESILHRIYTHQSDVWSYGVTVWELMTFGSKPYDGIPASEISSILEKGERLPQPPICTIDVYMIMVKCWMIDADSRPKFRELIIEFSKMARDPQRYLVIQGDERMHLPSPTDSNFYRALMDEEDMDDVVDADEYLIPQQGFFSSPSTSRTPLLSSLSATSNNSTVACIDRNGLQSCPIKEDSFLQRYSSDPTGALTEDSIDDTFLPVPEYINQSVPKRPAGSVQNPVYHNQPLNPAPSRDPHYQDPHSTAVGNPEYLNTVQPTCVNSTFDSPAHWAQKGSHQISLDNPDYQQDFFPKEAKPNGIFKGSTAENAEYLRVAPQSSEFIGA

With CCOc1cc(N2CCC(N3CCN(C(=O)CCC4CN(c5cccc6c5oc(=O)n6C5CCC(=O)NC5=O)C4)CC3)CC2)c(CC)cc1Nc1ncc(Br)c(Nc2ccc3nc(CC)ccc3c2P(C)(C)=O)n1 (stereo not shown) [Example 625, 3-(7-(3-(3-(4-(1-(4-((5-bromo-4-((5-(dimethylphosphoryl)-2-ethylquinolin-6-yl)amino)pyrimidin-2-yl)amino)-5-ethoxy-2-ethylphenyl)piperidin-4-yl)piperazin-1-yl)-3-oxopropyl)azetidin-1-yl)-2-oxobenzo[d]oxazol-3(2H)-yl)piperidine-2,6-dione] the DC50 [1, 3] was 11 nM, the Dmax [1, 4] was 88.8% and the “Dmax (%) H1975 # 28 DTC” value [2, 5] was 80.1%. For the same molecule, the DC50 [2, 6] was 1.86 nM.
In the case of CCc1cc(Nc2ncc(Br)c(Nc3cc(F)c4nc(C)ccc4c3P(C)(C)=O)n2)c(OC)cc1N1CCC(N2CCN(CCc3ccc4c(c3)oc(=O)n4C3CCC(=O)NC3=O)CC2)CC1 (stereo not shown) [Example 536, 3-(6-(2-(4-(1-(4-((5-bromo-4-((5-(dimethylphosphoryl)-8-fluoro-2-methylquinolin-6-yl)amino)pyrimidin-2-yl)amino)-2-ethyl-5-methoxyphenyl)piperidin-4-yl)piperazin-1-yl)ethyl)-2-oxobenzo[d]oxazol-3(2H)-yl)piperidine-2,6-dione], the DC50 [1, 7] is reported as 0.867 nM, the Dmax [1, 8] is reported as 96.3% and the DC50 [2, 9] is reported as 0.582 nM. The “Dmax (%) H1975 # 28 DTC” value [2, 5] was 73.22%.
CCc1ccc2c(P(C)(C)=O)c(Nc3nc(Nc4cc(CC)c(N5CCC(N6CCN(CCc7cc(F)c([C@H]8CCC(=O)NC8=O)c(F)c7)CC6)CC5)cc4OC4CC4)ncc3Br)ccc2n1 [Example 547, (R)-3-(4-(2-(4-(1-(4-((5-bromo-4-((5-(dimethylphosphoryl)-2-ethylquinolin-6-yl)amino)pyrimidin-2-yl)amino)-5-cyclopropoxy-2-ethylphenyl)piperidin-4-yl)piperazin-1-yl)ethyl)-2,6-difluorophenyl)piperidine-2,6-dione] was tested, and the DC50 [1, 7] was 4.45 nM, the Dmax [1, 8] was 89.3% and the DC50 [2, 9] was 0.647 nM. The “Dmax (%) H1975 # 28 DTC” value [2, 5] was 87.96%.
With CCc1cc(Nc2ncc(Br)c(Nc3ccc4nc(CO)ccc4c3P(C)(C)=O)n2)c(OC)cc1N1CCC(N2CCN(C(=O)[C@@H]3CCN(c4cc(F)c(C5CCC(=O)NC5=O)c(F)c4)C3)CC2)CC1 (stereo partly drawn) [Example 696, 3-(4-((R)-3-(4-(1-(4-((5-bromo-4-((5-(dimethylphosphoryl)-2-(hydroxymethyl)quinolin-6-yl)amino)pyrimidin-2-yl)amino)-2-ethyl-5-methoxyphenyl)piperidin-4-yl)piperazine-1-carbonyl)pyrrolidin-1-yl)-2,6-difluorophenyl)piperidine-2,6-dione] the DC50 [1, 7] was 4.53 nM, the Dmax [1, 8] was 92.3% and the DC50 [2, 9] was 0.647 nM. For the same molecule, the “Dmax (%) H1975 # 28 DTC” value [2, 5] was 75.49%.
Molecule CCc1ccc2c(P(C)(C)=O)c(Nc3nc(Nc4cc(CC)c(N5CCC(N6CCN(CCc7cc(C)cc8c7oc(=O)n8C7CCC(=O)NC7=O)CC6)CC5)cc4OC)ncc3Br)ccc2n1 (stereo not shown) [Example 442, 3-(7-(2-(4-(1-(4-((5-bromo-4-((5-(dimethylphosphoryl)-2-ethylquinolin-6-yl)amino)pyrimidin-2-yl)amino)-2-ethyl-5-methoxyphenyl)piperidin-4-yl)piperazin-1-yl)ethyl)-5-methyl-2-oxobenzo[d]oxazol-3(2H)-yl)piperidine-2,6-dione] has a DC50 [1, 7] of 6.53 nM, a Dmax [1, 8] of 87% and a DC50 [2, 9] of 1.05 nM. The “Dmax (%) H1975 # 28 DTC” value [2, 5] was 81.11%.
For CCOc1cc(N2CCC(N3CCN(C(=O)[C@@H]4CCN(c5cccc6c5oc(=O)n6C5CCC(=O)NC5=O)C4)CC3)CC2)c(CC)cc1Nc1ncc(Br)c(Nc2ccc3nc(CC)ccc3c2P(C)(C)=O)n1 (stereo partly drawn) [Example 445, 3-(7-((R)-3-(4-(1-(4-((5-bromo-4-((5-(dimethylphosphoryl)-2-ethylquinolin-6-yl)amino)pyrimidin-2-yl)amino)-5-ethoxy-2-ethylphenyl)piperidin-4-yl)piperazine-1-carbonyl)pyrrolidin-1-yl)-2-oxobenzo[d]oxazol-3(2H)-yl)piperidine-2,6-dione], the DC50 [1, 3] was 5.24 nM, the Dmax [1, 4] was 87.7% and the “Dmax (%) H1975 # 28 DTC” value [2, 5] was 79.2%. For the same molecule, the DC50 [2, 6] was 0.877 nM.
In the case of CCOc1cc(N2CCC(N3CCN(C(=O)[C@H]4CN(c5cc(F)c([C@H]6CCC(=O)NC6=O)c(F)c5)CC4(C)C)CC3)CC2)c(CC)cc1Nc1ncc(Br)c(Nc2cc(F)c3nc(CC)ccc3c2P(C)(C)=O)n1 [Example 746, (R)-3-(4-((R)-4-(4-(1-(4-((5-bromo-4-((5-(dimethylphosphoryl)-2-ethyl-8-fluoroquinolin-6-yl)amino)pyrimidin-2-yl)amino)-5-ethoxy-2-ethylphenyl)piperidin-4-yl)piperazine-1-carbonyl)-3,3-dimethylpyrrolidin-1-yl)-2,6-difluorophenyl)piperidine-2,6-dione], the DC50 [1, 7] is reported as 30.9 nM, the DC50 [2, 9] is reported as 11 nM and the “Dmax (%) H1975 # 28 DTC” value [2, 5] is reported as 77.61%.
For COc1cc(N2CCC3(CCN(CCCCCOc4cccc5c4CN(C4CCC(=O)NC4=O)C5=O)CC3)CC2)c(C)cc1Nc1ncc(Br)c(Nc2ccc3nccnc3c2P(C)(C)=O)n1 (stereo not shown) [Example 542, 3-(4-((5-(9-(4-((5-bromo-4-((5-(dimethylphosphoryl)quinoxalin-6-yl)amino)pyrimidin-2-yl)amino)-5-methoxy-2-methylphenyl)-3,9-diazaspiro[5.5]undecan-3-yl)pentyl)oxy)-1-oxoisoindolin-2-yl)piperidine-2,6-dione], the DC50 [1, 7] was 11.2 nM, the DC50 [2, 9] was 0.75 nM and the “Dmax (%) H1975 # 28 DTC” value [2, 5] was 45.37%.
Work on CCc1cc(Nc2ncc(Br)c(Nc3ccc4nc(C)ccc4c3P(C)(C)=O)n2)c(OC2CC2)cc1N1CCC(N2CCN(CCc3cccc4c3n(C)c(=O)n4C3CCC(=O)NC3=O)CC2)CC1 (stereo not shown) [Example 642, 3-(4-(2-(4-(1-(4-((5-bromo-4-((5-(dimethylphosphoryl)-2-methylquinolin-6-yl)amino)pyrimidin-2-yl)amino)-5-cyclopropoxy-2-ethylphenyl)piperidin-4-yl)piperazin-1-yl)ethyl)-3-methyl-2-oxo-2,3-dihydro-1H-benzo[d]imidazol-1-yl)piperidine-2,6-dione] yielded a DC50 [1, 7] of 1.42 nM, a Dmax [1, 8] of 93.7% and a DC50 [2, 9] of 0.617 nM. The “Dmax (%) H1975 # 28 DTC” value [2, 5] was 76.78%.
In the case of CCOc1cc(N2CCC(N3CCN(CCc4cc5oc(=O)n(C6CCC(=O)NC6=O)c5cc4F)CC3)CC2)c(CC)cc1Nc1ncc(Br)c(Nc2ccc3nc(CC)ncc3c2P(C)(C)=O)n1 (stereo not shown) [Example 609, 3-(6-(2-(4-(1-(4-((5-bromo-4-((5-(dimethylphosphoryl)-2-ethylquinazolin-6-yl)amino)pyrimidin-2-yl)amino)-5-ethoxy-2-ethylphenyl)piperidin-4-yl)piperazin-1-yl)ethyl)-5-fluoro-2-oxobenzo[d]oxazol-3(2H)-yl)piperidine-2,6-dione], the “Dmax (%) BaF3-LTC” value ([1]; BaF3-LTC cells; maximum percentage of inhibition (degradation)) is reported as 89.57%, the DC50 [1, 3] is reported as 11.5 nM and the “Dmax (%) H1975 # 28 DTC” value [2, 5] is reported as 74.7%. For the same molecule, the DC50 [2, 6] was 3.07 nM.
With CCOc1cc(N2CCC(N3CCN(CCc4cc5oc(=O)n(C6CCC(=O)NC6=O)c5cc4F)CC3)CC2)c(CC)cc1Nc1ncc(Br)c(Nc2ccc3nc(CC)ncc3c2P(C)(C)=O)n1 (stereo not shown) [Example 565, 3-(6-(2-(4-(1-(4-((5-bromo-4-((5-(dimethylphosphoryl)-2-ethylquinazolin-6-yl)amino)pyrimidin-2-yl)amino)-5-ethoxy-2-ethylphenyl)piperidin-4-yl)piperazin-1-yl)ethyl)-5-fluoro-2-oxobenzo[d]oxazol-3(2H)-yl)piperidine-2,6-dione] the DC50 [1, 3] was 3.92 nM, the Dmax [1, 4] was 93.2% and the “Dmax (%) H1975 # 28 DTC” value [2, 5] was 74.32%. It also gave a DC50 [2, 6] of 0.626 nM.
In the case of CCc1ccc2c(P(C)(C)=O)c(Nc3nc(Nc4cc(CC)c(N5CCC(C6CCN(CCc7cc(F)c([C@H]8CCC(=O)NC8=O)c(F)c7)CC6)CC5)cc4OC)ncc3Br)ccc2n1 [Example 745, (R)-3-(4-(2-(1′-(4-((5-bromo-4-((5-(dimethylphosphoryl)-2-ethylquinolin-6-yl)amino)pyrimidin-2-yl)amino)-2-ethyl-5-methoxyphenyl)-[4,4′-bipiperidin]-1-yl)ethyl)-2,6-difluorophenyl)piperidine-2,6-dione], the DC50 [1, 7] is reported as 40.3 nM, the DC50 [2, 9] is reported as 2.25 nM and the “Dmax (%) H1975 # 28 DTC” value [2, 5] is reported as 75.21%.
CCc1ccc2c(P(C)(C)=O)c(Nc3nc(Nc4cc(C5CC5)c(N5CCC(N6CCN(CCc7cccc8c7oc(=O)n8C7CCC(=O)NC7=O)CC6)CC5)cc4OC)ncc3Br)ccc2n1 (stereo not shown) [Example 631, 3-(7-(2-(4-(1-(4-((5-bromo-4-((5-(dimethylphosphoryl)-2-ethylquinolin-6-yl)amino)pyrimidin-2-yl)amino)-2-cyclopropyl-5-methoxyphenyl)piperidin-4-yl)piperazin-1-yl)ethyl)-2-oxobenzo[d]oxazol-3(2H)-yl)piperidine-2,6-dione] showed a DC50 [1, 7] of 9.33 nM, a Dmax [1, 8] of 86.8% and a DC50 [2, 9] of 1.04 nM. For the same molecule, the “Dmax (%) H1975 # 28 DTC” value [2, 5] was 82.5%.
